Results reported in patent US20050239751A1, “Heterocyclic anti-viral compounds comprising metabolizable moieties and their uses” (Rigel Pharmaceuticals, Inc., priority 2004, published 2005).

The molecules below were run on HCV replicon in 5-2 Luc replicon-comprising cells (assay: HCV replicon assay (luciferase; HEPC_REPLICON-LUC)). Conditions: Hepatitis C virus; Tables 3-12; 50% reduction in luciferase emission, 5-2 Luc replicon cells; read-out: Replicon (IC50).
Type: cell-based, Hepatitis C virus
From the text: In one embodiment, the inhibitory activity of the metabolically active agent of the prodrug can be confirmed in a replicon assay that assesses the ability of a test compound to block or inhibit HCV replication in replicon cells. One example of a suitable replicon assay is the liver cell-line Huh 7-based replicon assay described in Lohmann et al., 1999, Science 285:110-113. A specific example of this replicon assay which utilizes luciferase translation is provided in the Examples Section. In one embodiment of this assay, the amount of test prodrug that yields a 50% reduction in translation as compared to a control cell (IC50) may be determined.
The inhibitory activity of certain prodrugs of the invention, which may inhibit HCV translation or replication prior to metablism and/or are metabolized into active agents, was confirmed using an HCV replicon assay. The HCV replicon can include such features as the HCV 5′ untranslated region including the HCV IRES, the HCV 3′ untranslated region, selected HCV genes encoding HCV polypeptides, selectable markers, and a reporter gene such as luciferase, GFP, etc. In the assay, actively dividing 5-2 Luc replicon-comprising cells (obtained from Ralf Bartenschlager; see Lohmann et al., 1999, Science 285:110-113) were seeded at a density of between about 5,000 and 7,500 cells/well onto 96 well plates (about 90 µl of cells per well) and incubated at 37° C. and 5% CO2 for 24 hours. Then, the test prodrug (in a volume of about 10 PI) was added to the wells at various concentrations and the cells were incubated for an additional 24-48 hours before luciferase assay. The media was aspirated from each well and Bright-Glo (Promega, Madison, WI) luciferase assay reagents were added to each well according to the manufacturer's instructions. Briefly, the BrightGlo reagent was diluted 1:1 with PBS and 100 µl of diluted reagent was added to each well. After 5 min of incubation at room temperature, luciferin emission was quantified with a luminometer. In this assay, the amount of test prodrug that yielded a 50% reduction in luciferase emission (IC50) was determined. This IC50 value may represent the antiviral activity of the prodrug itself, the activity of prodrug transformed into its active metabolized form, or a combination of the two.
In TABLES 3 through 12, a value of “+” indicates an IC50 of 10 μM or less in the specified assay; a value of “−” indicates an IC50 of greater than 10 μM in the specified assay.
`CCOC(=O)C(Cl)(Cl)C(=O)Nc1cccc(-c2cc(-c3c(N4CCOCC4)ccnc3Cl)no2)c1` [compound 54] was tested, and the IC50 was greater than 10 µM.
Molecule `COC(=O)C(Cl)(Cl)C(=O)Nc1cccc(-c2cc(-c3c(Cl)cccc3Cl)no2)c1` [Cpd. 18] has an IC50 of no more than 10 µM.
Molecule `O=C(Nc1ccnc(-c2cc(-c3c(Cl)cccc3Cl)no2)c1)C(Cl)(Cl)C(=O)OC1CCCCC1` [compound 23] has an IC50 of no more than 10 µM.
In the case of `Cc1oc(=O)oc1CN(C(=O)C(Cl)Cl)c1cccc(-c2cc(-c3c(Cl)cccc3Cl)no2)c1` [compound 901, 2,2-dichloro-N-[3′-[3′-(2′,6′-dichlorophenyl)-5′-isoxazoyl]phenyl]N-[(5-methyl-1,3-dioxolene-2-one4-yl)methylene] acetamide], the IC50 is reported as no more than 10 µM.
In the case of `O=C(C(Cl)Cl)N(Cc1oc(=O)oc1C1CCCCC1)c1cccc(-c2cc(-c3c(Cl)cccc3Cl)no2)c1` [Cpd. 39, 2,2-dichloro-N-[3′-[3′-(2′,6′-dichlorophenyl)-5′-isoxazoyl]phenyl]-N-[(5-cyclohexyl-1,3-dioxolene-2-one4-yl)methylene] acetamide], the IC50 is reported as no more than 10 µM.
`CC(=O)C(Cl)(Cl)C(=O)Nc1cccc(-c2cc(-c3c(Cl)cccc3Cl)no2)c1` [Cpd. 10] showed an IC50 greater than 10 µM.
Work on `CCOC(=O)[C@H](C)OC(=O)C(Cl)(Cl)C(=O)Nc1cccc(-c2cc(-c3c(Cl)cccc3Cl)no2)c1` [Cpd. 8, 2′,2′-dichloro-2′-(1S-ethoxycarbonyl-1-methylmethyleneoxycarbonyl)-N-[3-[3-(2,6-dichlorophenyl)-5-isoxazoyl]phenyl] acetamide] yielded an IC50 of no more than 10 µM.
`COC(=O)C(Cl)(Cl)C(=O)Nc1cccc(-c2cc(-c3c(Cl)ccnc3N(C)C)no2)c1` [Cpd. 28] gave an IC50 of no more than 10 µM.
Work on `CC(C)(C)COC(=O)C(Cl)(Cl)C(=O)Nc1cccc(-c2cc(-c3c(Cl)cccc3Cl)no2)c1` [Cpd. 14] yielded an IC50 of no more than 10 µM.
`COC(=O)C(Cl)(Cl)C(=O)Nc1cccc(-c2cc(-c3c(C4CC4)cccc3C(F)(F)F)no2)c1` [Cpd. 26, 2′,2′-dichloro-2′-(methoxycarbonyl)-N-[3-[3-(2-cyclopropyl-6-trifluoromethylphenyl]5-isoxazoyl]phenyl] acetamide] gave an IC50 of no more than 10 µM.
For `CCCc1oc(=O)oc1CN(C(=O)C(Cl)Cl)c1cccc(-c2cc(-c3c(Cl)cccc3Cl)no2)c1` [Cpd. 38, 2,2-dichloro-N-[3′-[3′-(2′,6′-dichlorophenyl)-5′-isoxazoyl]phenyl]-N-[(5-n-propyl-1,3-dioxolene-2-one-4-yl)methylene] acetamide], the IC50 was no more than 10 µM.
For `O=C(Nc1cccc(-c2cc(-c3c(N4CCOCC4)ccnc3Cl)no2)c1)C(Cl)(Cl)C(=O)OC1CCCCC1` [compound 52], the IC50 was greater than 10 µM.
For `CC(C)(C)OC(=O)C(Cl)(Cl)C(=O)Nc1cccc(-c2cc(-c3c(Cl)cccc3Cl)no2)c1` [Cpd. 15], the IC50 was no more than 10 µM.
Work on `CC(C)(C)OC(=O)C(Cl)(Cl)C(=O)Nc1cccc(-c2cc(-c3c(N4CCOCC4)ccnc3Cl)no2)c1` [compound 56] yielded an IC50 greater than 10 µM.
In the case of `CC(C)OC(=O)C(Cl)(Cl)C(=O)Nc1cccc(-c2cc(-c3c(Cl)cccc3Cl)no2)c1` [Cpd. 16, 2′,2′-dichloro-2′-(isopropoxycarbonyl)-N-[3-[3-(2,6-dichlorophenyl)-5-isoxazoyl]phenyl] acetamide], the IC50 is reported as no more than 10 µM.
In the case of `O=C(Nc1cccc(-c2cc(-c3c(Cl)cccc3Cl)no2)c1)C(Cl)(Cl)C(=O)OC1CCCCC1` [Cpd. 13, 2′,2′-dichloro-2′-(cyclohexyloxycarbony)-N-[3-[3-(2,6-dichlorophenyl)-5-isoxazoyl]phenyl] acetamide], the IC50 is reported as no more than 10 µM.
In the case of `CC(C)(C)OC(=O)C(Cl)(Cl)C(=O)Nc1ccnc(-c2cc(-c3c(Cl)cccc3Cl)no2)c1` [Cpd. 505], the IC50 is reported as no more than 10 µM.
Molecule `CCOC(=O)c1oc(=O)oc1CN(C(=O)C(Cl)Cl)c1cccc(-c2cc(-c3c(Cl)cccc3Cl)no2)c1` [Cpd. 44] has an IC50 greater than 10 µM.
`COC(=O)C(Cl)(Cl)C(=O)Nc1cccc(-c2cc(-c3ccccc3C(F)(F)F)no2)c1` [Cpd. 29, 2′,2′-dichloro-2′-(methoxycarbonyl)-N-[3-[3-(2-trifluoromethylphenyl)-5-isoxazoyl]phenyl] acetamide] showed an IC50 of no more than 10 µM.
In the case of `COC(=O)C(Cl)(Cl)C(=O)Nc1cccc(-c2cc(-c3c(F)cccc3C(F)(F)F)no2)c1` [Cpd. 30, 2′,2′-dichloro-2′-(methoxycarbonyl)-N-[3-[3-(2-fluoro-6-trifluoromethylphenyl)-5-isoxazoyl]phenyl] acetamide], the IC50 is reported as no more than 10 µM.
Molecule `O=C(Nc1cccc(-c2cc(-c3c(Cl)cccc3Cl)no2)c1)C(Cl)(Cl)C(=O)N1CCOCC1` [Cpd. 50] has an IC50 of no more than 10 µM.
With `COc1cccc(Cl)c1-c1cc(-c2cccc(N(Cc3oc(=O)oc3C)C(=O)C(Cl)Cl)c2)on1` [Cpd. 31, 2,2-dichloro-N-[3′-[3′-(2′-chloro-6′-methoxyphenyl)-5′-isoxazoyl]phenyl]-N-[(5-methyl-1,3-dioxolene-2-one-4-yl)methylene] acetamide] the IC50 was no more than 10 µM.
`CC(C)c1oc(=O)oc1CN(C(=O)C(Cl)Cl)c1cccc(-c2cc(-c3c(Cl)cccc3Cl)no2)c1` [Cpd. 34, 2,2-dichloro-N-[3′-[3′-(2′,6′-dichlorophenyl)-5′-isoxazoyl]phenyl]-N-[(5-isopropyl-1,3-dioxolene-2-one4-yl)methylene] acetamide] showed an IC50 of no more than 10 µM.

Same assay, conditions: Table 15; read-out: Replicon (IC50)
Work on “2′,2′-Dichloro-N-[3-[3-(2,6-dichlorophenyl)-5-isoxazolyl]-4-(pyridyl)]-N-[2-(4-fluorobenzoyl)ethyl] Acetamide [126a]” yielded an IC50 of no more than 10 µM.
For “2′,2′-Dichloro-N-[3-[3-(2,6-dichlorophenyl)-5-isoxazolyl]phenyl]-N-[2-(benzoyl)ethyl] Acetamide [Cpd. 102a]”, the IC50 was no more than 10 µM.
Work on “2′,2′-Dichloro-N-[3-[3-(2-chloro-6-hydroxycarbonylphenyl)-5-isoxazolyl]phenyl]-N-[2-(4-fluorobenzoyl)ethyl] Acetamide [Cpd. 129a]” yielded an IC50 of no more than 10 µM.
With “2′,2′-Dichloro-N-[3-[3-(2-chloro-6-tbutoxycarbonylphenyl)-5-isoxazolyl]phenyl]N-[2-(4-fluorobenzoyl)ethyl] Acetamide [Cpd. 128a]” the IC50 was no more than 10 µM.
Work on “2′,2′-Dichloro-N-[3-[3-[2-chloro-6-(N′-acetyl-4piperdinyloxy)phenyl]-5-isoxazolyl]phenyl]-N-[2-(4-fluorobenzoyl)ethyl] Acetamide [Cpd. 127a]” yielded an IC50 of no more than 10 µM.
Molecule “2′,2′-Dichloro-N-[3-[3-(2,6-dichlorophenyl)-5-isoxazolyl]phenyl]-N-[2-(4-fluorobenzoyl)ethyl] Acetamide [100a]” has an IC50 of no more than 10 µM.
For `O=C(CCCN(C(=O)C(Cl)Cl)c1cccc(-c2cc(-c3c(Cl)cccc3Cl)no2)c1)c1ccccc1` [107a], the IC50 was no more than 10 µM.
`O=C(CCN(C(=O)C(Cl)Cl)c1cccc(-c2cc(-c3c(Cl)cccc3Cl)no2)c1)c1ccc(Cl)cc1` [Cpd. 104a, 2′,2′-Dichloro-N-[3-[3-(2,6-dichlorophenyl)-5-isoxazolyl]phenyl]-N-[2-(4-chlorobenzoyl)ethyl] Acetamide] showed an IC50 of no more than 10 µM.

Same assay, conditions: Tables 3-12; 50% reduction in luciferase emission, 5-2 Luc replicon cells; read-out: Replicon (IC50)
“2′-chloro-2′-(diethoxyphosphonyl)-N-[3-[3-(2,6-dichlorophenyl)-5-isoxazoyl]phenyl] acetamide [Cpd. 1]” gave an IC50 greater than 10 µM.
“2′,2′-dichloro-2′-(diisopropoxyphosphonyl)-N-[3-[3-(2,6-dichlorophenyl)-5-isoxazoyl]phenyl] acetamide [Cpd. 4]” showed an IC50 of no more than 10 µM.
Work on “2′,2′-dichloro-2′-[(1R, 2S, 5Rkmenthyloxycarbonyl]-N-[3-[3-(2,6-dichlorophenyl)-5-isoxazoyl]phenyl] acetamide [Cpd. 11]” yielded an IC50 of no more than 10 µM.
Molecule “2,2-dichloro-2-(dihydroxyphosphonyl)-N-[3-[3-(2,6-dichlorophenyl)-5-isoxazoyl]phenyl] acetamide [Cpd. 407]” has an IC50 greater than 10 µM.
For “2,2-dichloro-N-[3′-[3′-(2′-chloro-6′-tbutoxycarbonylphenyl)-5′-isoxazoyl]phenyl]-N-[(5-isopropyl-1,3-dioxolene-2-one4-yl)methylene] acetamide [Cpd. 36]”, the IC50 was no more than 10 µM.
In the case of “2′,2′-dichloro-2′-(benzyloxycarbonyl)-N-[3-[3-(2,6-dichlorophenyl)-5-isoxazoyl]phenyl] acetamide [Cpd. 17]”, the IC50 is reported as no more than 10 µM.
In the case of “2′,2′-dichloro-2′-(diethoxyphosphonyl)-N-[3-[3-(2-fluoro-6-trifluoromethylphenyl)-5-isoxazoyl]phenyl] acetamide [Cpd. 6]”, the IC50 is reported as no more than 10 µM.
For `CCOP(=O)(OCC)C(Cl)(Cl)C(=O)Nc1cccc(-c2cc(-c3ccccc3C(F)(F)F)no2)c1` [Cpd. 5], the IC50 was no more than 10 µM.
